Converted amounts (≈) assume the structure as drawn.
What was measured:
Type in all cases: functional
Candida albicans [1] = assay: Antifungal activity against FCZ-resistant Candida albicans 904 by CLSI based broth microdilution method
Candida albicans [2] = assay: Antifungal activity against FCZ-resistant Candida albicans 632 by CLSI based broth microdilution method
Candida albicans [3] = assay: Antifungal activity against FCZ-resistant Candida albicans 901 by CLSI based broth microdilution method
Candida albicans [4] = assay: Antifungal activity against FCZ-resistant Candida albicans CaR by CLSI based broth microdilution method
Candida albicans [5] = assay: Antifungal activity against FCZ-resistant Candida albicans 17# by CLSI based broth microdilution method
Candida parapsilosis = assay: Antifungal activity against Candida parapsilosis by CLSI based broth microdilution method; conditions: Lodderomyces parapsilosis
Nakaseomyces glabratus = assay: Antifungal activity against Candida glabrata by CLSI based broth microdilution method
Aspergillus fumigatus = assay: Antifungal activity against Aspergillus fumigatus by CLSI based broth microdilution method
Candida albicans [6] = assay: Antifungal activity against Candida albicans by CLSI based broth microdilution method
Candida albicans [7] = assay: Antifungal activity against Candida albicans sc5314 by CLSI based broth microdilution method
[Candida] zeylanoides = Antifungal activity against Candida zeylanoides by CLSI based broth microdilution method; conditions: Dujonia zeylanoides
Pichia kudriavzevii = assay: Antifungal activity against Pichia kudriavzevii by CLSI based broth microdilution method
Cryptococcus neoformans = assay: Antifungal activity against Cryptococcus neoformans by CLSI based broth microdilution method

SMILES	MIC (Candida albicans [1])	MIC (Candida albicans [2])	MIC (Candida albicans [3])	MIC (Candida albicans [4])	MIC (Candida albicans [5])	MIC (Candida parapsilosis)	MIC (Nakaseomyces glabratus)	MIC (Aspergillus fumigatus)	MIC (Candida albicans [6])	MIC (Candida albicans [7])	MIC ([Candida] zeylanoides)	MIC (Pichia kudriavzevii)	MIC (Cryptococcus neoformans)
Fc1ccc(C(Cn2ccnn2)[Se][Se]C(Cn2ccnn2)c2ccc(F)cc2)cc1 (stereo not drawn)	> 64 µg/mL	> 64 µg/mL	> 64 µg/mL	32 µg/mL (≈ 59.4 µM)	> 64 µg/mL								
Fc1ccc(C(Cn2cncn2)[Se][Se]C(Cn2cncn2)c2ccc(F)cc2)cc1 (stereo not drawn)	16 µg/mL (≈ 29.7 µM)	64 µg/mL (≈ 119 µM)	16 µg/mL (≈ 29.7 µM)	4 µg/mL (≈ 7.43 µM)	16 µg/mL (≈ 29.7 µM)								
Clc1ccc(C(Cn2cncn2)[Se]C(Cn2cncn2)c2ccc(Cl)cc2Cl)c(Cl)c1 (stereo not drawn)	> 64 µg/mL	64 µg/mL (≈ 114 µM)	> 64 µg/mL	32 µg/mL (≈ 57 µM)	8 µg/mL (≈ 14.3 µM)	64 µg/mL (≈ 114 µM)	32 µg/mL (≈ 57 µM)	> 64 µg/mL	64 µg/mL (≈ 114 µM)	32 µg/mL (≈ 57 µM)	0.5 µg/mL (≈ 0.891 µM)	64 µg/mL (≈ 114 µM)	4 µg/mL (≈ 7.13 µM)
Clc1ccc(C(Cn2ccnn2)[Se]C(Cn2ccnn2)c2ccc(Cl)cc2Cl)c(Cl)c1 (stereo not drawn)	> 64 µg/mL	> 64 µg/mL	> 64 µg/mL	128 µg/mL (≈ 228 µM)	4 µg/mL (≈ 7.13 µM)	> 64 µg/mL	64 µg/mL (≈ 114 µM)	> 64 µg/mL	> 64 µg/mL	> 64 µg/mL	32 µg/mL (≈ 57 µM)	> 64 µg/mL	64 µg/mL (≈ 114 µM)
Clc1ccc(C(Cn2cncn2)[Se][Se]C(Cn2cncn2)c2ccc(Cl)cc2)cc1 (stereo not drawn)	16 µg/mL (≈ 28 µM)	> 64 µg/mL	16 µg/mL (≈ 28 µM)	4 µg/mL (≈ 7 µM)	64 µg/mL (≈ 112 µM)								
Clc1ccc(C(Cn2cnnn2)[Se][Se]C(Cn2cnnn2)c2ccc(Cl)cc2)cc1 (stereo not drawn)	> 64 µg/mL	> 64 µg/mL	> 64 µg/mL	> 64 µg/mL	> 64 µg/mL								
Clc1ccc(C(Cn2cnnn2)[Se]C(Cn2cnnn2)c2ccc(Cl)cc2)cc1 (stereo not drawn)	> 64 µg/mL	> 64 µg/mL	> 64 µg/mL	> 64 µg/mL	> 64 µg/mL	> 64 µg/mL	> 64 µg/mL	> 64 µg/mL	> 64 µg/mL	> 64 µg/mL	> 64 µg/mL	> 64 µg/mL	> 64 µg/mL
Clc1ccc(C(Cn2cncn2)[Se]C(Cn2cncn2)c2ccc(Cl)cc2)cc1 (stereo not drawn)	64 µg/mL (≈ 130 µM)	> 64 µg/mL	16 µg/mL (≈ 32.5 µM)	32 µg/mL (≈ 65 µM)	8 µg/mL (≈ 16.3 µM)	> 64 µg/mL	> 64 µg/mL	> 64 µg/mL	> 64 µg/mL	32 µg/mL (≈ 65 µM)	16 µg/mL (≈ 32.5 µM)	> 64 µg/mL	4 µg/mL (≈ 8.13 µM)
Clc1ccc(C(Cn2cncn2)[Se][Se]C(Cn2cncn2)c2ccc(Cl)cc2Cl)c(Cl)c1 (stereo not drawn)	> 64 µg/mL	> 64 µg/mL	> 64 µg/mL	8 µg/mL (≈ 12.5 µM)	16 µg/mL (≈ 25 µM)								
Clc1ccc(C(Cn2ccnn2)[Se][Se]C(Cn2ccnn2)c2ccc(Cl)cc2Cl)c(Cl)c1 (stereo not drawn)	> 64 µg/mL	> 64 µg/mL	> 64 µg/mL	4 µg/mL (≈ 6.25 µM)	64 µg/mL (≈ 100 µM)								
Clc1ccc(C(Cn2ccnn2)[Se]C(Cn2ccnn2)c2ccc(Cl)cc2)cc1 (stereo not drawn)	> 64 µg/mL	> 64 µg/mL	> 64 µg/mL	> 64 µg/mL	> 64 µg/mL	> 64 µg/mL	8 µg/mL (≈ 16.3 µM)	> 64 µg/mL	> 64 µg/mL	> 64 µg/mL	64 µg/mL (≈ 130 µM)	32 µg/mL (≈ 65 µM)	> 64 µg/mL
Fc1ccc(C(Cn2ccnn2)[Se][Se]C(Cn2ccnn2)c2ccc(F)cc2F)c(F)c1 (stereo not drawn)	> 64 µg/mL	> 64 µg/mL	> 64 µg/mL	4 µg/mL (≈ 6.96 µM)	16 µg/mL (≈ 27.9 µM)								
Fc1ccc(C(Cn2ccnn2)[Se]C(Cn2ccnn2)c2ccc(F)cc2F)c(F)c1 (stereo not drawn)	> 64 µg/mL	> 64 µg/mL	> 64 µg/mL	64 µg/mL (≈ 129 µM)	4 µg/mL (≈ 8.08 µM)	> 64 µg/mL	64 µg/mL (≈ 129 µM)	> 64 µg/mL	> 64 µg/mL	> 64 µg/mL	1 µg/mL (≈ 2.02 µM)	> 64 µg/mL	32 µg/mL (≈ 64.6 µM)
Clc1ccc(C(Cn2ccnn2)[Se][Se]C(Cn2ccnn2)c2ccc(Cl)cc2)cc1 (stereo not drawn)	> 64 µg/mL	> 64 µg/mL	> 64 µg/mL	> 64 µg/mL	> 64 µg/mL								

Reference: ChEMBL document CHEMBL5352410, “Discovery of novel selenium-containing azole derivatives as antifungal agents by exploiting the hydrophobic cleft of CYP51” (Eur J Med Chem, 2022)
